The structures appear in SMILES notation. pIC50: −log10 of the molar value.

T1 sequence (Q99683 649-946 limits assumed): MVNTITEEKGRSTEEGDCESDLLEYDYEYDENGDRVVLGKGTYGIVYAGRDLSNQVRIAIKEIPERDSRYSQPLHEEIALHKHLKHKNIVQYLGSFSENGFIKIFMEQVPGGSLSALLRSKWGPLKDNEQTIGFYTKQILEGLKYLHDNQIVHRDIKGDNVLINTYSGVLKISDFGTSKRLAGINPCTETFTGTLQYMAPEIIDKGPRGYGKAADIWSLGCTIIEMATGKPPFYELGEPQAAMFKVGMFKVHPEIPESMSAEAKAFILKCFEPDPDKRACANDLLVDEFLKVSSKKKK

This test has as its target T1, ASK-1 enzyme (Homo sapiens, UniProt Q99683).
T1 construct: purchased Signal Chem M13-11G-10
The test is described as follows: Inhibitory ability against ASK-1 enzyme activity (ADP-Glo Kinase Assay). Type of test: biochemical. The conditions noted are these: 250 μM ATP, MBP substrate, 30° C. for 40 minutes. As for the experimental part:
Experimental Example 1: Assay of Inhibitory Ability Against ASK-1 Enzyme Activity (ADP-Glo™ Kinase Assay)
In order to evaluate the inhibitory ability of the compounds of Examples 1 to 25 against ASK-1 enzyme activity, the following experiment was carried out using ADP-Glo™ (Promega, Cat. No. V9101). Each of the compounds was prepared into a solution at concentrations of 0.32 nM, 1.6 nM, 8 nM, 40 nM, 200 nM, 1,000 nM by adding a kinase buffer solution (40 mM Tris, 20 mM MgCl2, 0.1 mg/mL bovine serum albumin in H2O). Subsequently, 250 μM of ATP (Promega, Cat. No. V915A) and 0.5 g/L of MBP substrate (Signal Chem, Cat. No. 42-51N) were added thereto, and the mixture was reacted at 30° C. for 40 minutes in the presence of 15 ng of ASK-1 enzyme (Signal Chem, Cat. No. M13-11G-10). Then, the ADP-Glo™ reagent and a kinase detection reagent were sequentially added thereto and reacted for 40 minutes and 10 minutes, respectively. After completion of the reaction, luminescence was measured using a Synergy™ NEO microplate reader (BioTEK, NEOB-1311189).
The inhibitory ability of the compounds of Examples 1 to 25 against ASK-1 enzyme activity was verified by analyzing data from the measured RLU values. Specifically, the inhibitory ability against ASK-1 enzyme activity was assessed by deriving the residual activity percentage of the ASK-1 enzyme in the samples treated with the compounds at the concentration to be tested, while using the RLU value of the sample not treated with the compounds as a 100% control.
In general terms: ADP-Glo first removes unused ATP, then detects ADP through luciferase.
In general, pIC50 refers to the IC50 on a negative log10 scale, so that one unit is a factor of ten. In the case of `CC(C)n1cnnc1-c1cccc(N2COc3ccc(-c4cnn(CC5CC5)c4)cc3C2=O)n1` [Example 1, 6-(1-(cyclopropylmethyl)-1H-pyrazol-4-yl)-3-(6-(4-isopropyl-4H-1,2,4-triazol-3-yl)pyridin-2-yl)-2,3-dihydro-4H-benzo[e][1,3]oxazin-4-one], the pIC50 is 8.03.
To `CC(C)n1cnnc1-c1cccc(N2COc3ccc(-c4ccc(S(C)(=O)=O)cc4)cc3C2=O)n1` [Example 2, 3-(6-(4-isopropyl-4H-1,2,4-triazol-3-yl)pyridin-2-yl)-6-(4-(methylsulfonyl)phenyl)-2,3-dihydro-4H-benzo[e][1,3]oxazin-4-one] belongs 7.30.
As for `CC(C)n1cnnc1-c1cccc(N2COc3ccc(-c4ccncc4)cc3C2=O)n1` [Example 3, 3-(6-(4-isopropyl-4H-1,2,4-triazol-3-yl)pyridin-2-yl)-6-(pyridin-4-yl)-2,3-dihydro-4H-benzo[e][1,3]oxazin-4-one], the figure is 8.04.
As for `Cc1ccnc(Nc2ccc3c(c2)C(=O)N(c2cccc(-c4nncn4C(C)C)n2)CO3)n1` [Example 4, 3-(6-(4-isopropyl-4H-1,2,4-triazol-3-yl)pyridin-2-yl)-6-(4-methylpyrimidin-2-ylamino)-2,3-dihydro-4H-benzo[e][1,3]oxazin-4-one], the figure is 8.11.
Turning to `CC(C)n1cnnc1-c1cccc(N2COc3ccc(-c4cnn(C5CCOC5)c4)cc3C2=O)n1` (stereo not shown) [Example 5, 3-(6-(4-isopropyl-4H-1,2,4-triazol-3-yl)pyridin-2-yl)-6-(1-(tetrahydrofuran-3-yl)-1H-pyrazol-4-yl)-2,3-dihydro-4H-benzo[e][1,3]oxazin-4-one], the pIC50 was 7.41.
To `CCOC(C)n1cc(-c2ccc3c(c2)C(=O)N(c2cccc(-c4nncn4C(C)C)n2)CO3)cn1` (stereo not shown) [Example 6, 6-(1-(1-ethoxyethyl)-1H-pyrazol-4-yl)-3-(6-(4-isopropyl-4H-1,2,4-triazol-3-yl)pyridin-2-yl)-2,3-dihydro-4H-benzo[e][1,3]oxazin-4-one] belongs 7.53; to `CC(C)n1cnnc1-c1cccc(N2COc3ccc(-c4cnn(C(F)F)c4)cc3C2=O)n1` [Example 7, 6-(1-(difluoromethyl)-1H-pyrazol-4-yl)-3-(6-(4-isopropyl-4H-1,2,4-triazol-3-yl)pyridin-2-yl)-2,3-dihydro-4H-benzo[e][1,3]oxazin-4-one], 7.48; to `CC(C)n1cnnc1-c1cccc(N2COc3ccc(-c4cnn(C5CC5)c4)cc3C2=O)n1` [Example 8, 6-(1-cyclopropyl-1H-pyrazol-4-yl)-3-(6-(4-isopropyl-4H-1,2,4-triazol-3-yl)pyridin-2-yl)-2,3-dihydro-4H-benzo[e][1,3]oxazin-4-one], 7.86.
`CC(C)Cn1cc(-c2ccc3c(c2)C(=O)N(c2cccc(-c4nncn4C(C)C)n2)CO3)cn1` [Example 9, 6-(1-isobutyl-1H-pyrazol-4-yl)-3-(6-(4-isopropyl-4H-1,2,4-triazol-3-yl)pyridin-2-yl)-2,3-dihydro-4H-benzo[e][1,3]oxazin-4-one]: the pIC50 was 7.96.
`CC(C)n1cnnc1-c1cccc(N2COc3ccc(Nc4nccc(C(F)F)n4)cc3C2=O)n1` [Example 10, 6-(4-(difluoromethyl)pyrimidin-2-ylamino)-3-(6-(4-isopropyl-4H-1,2,4-triazol-3-yl)pyridin-2-yl)-2,3-dihydro-4H-benzo[e][1,3]oxazin-4-one]: the pIC50 was 8.14.
For `CC(C)CCn1cc(-c2ccc3c(c2)C(=O)N(c2cccc(-c4nncn4C(C)C)n2)CO3)cn1` [Example 11, 6-(1-isopentyl-1H-pyrazol-4-yl)-3-(6-(4-isopropyl-4H-1,2,4-triazol-3-yl)pyridin-2-yl)-2,3-dihydro-4H-benzo[e][1,3]oxazin-4-one], the pIC50 is 7.73.
In the case of `CC(C)n1cnnc1-c1cccc(N2COc3ccc(-c4ccc(C5(C#N)CC5)cc4)cc3C2=O)n1` [Example 12, 1-(4-(3-(6-(4-isopropyl-4H-1,2,4-triazol-3-yl)pyridin-2-yl)-4-oxo-3,4-dihydro-2H-benzo[e][1,3]oxazin-6-yl)phenyl) cyclopropanecarbonitrile], the negative-log IC50 (pIC50) was 7.77.
As for `CC(C)n1cnnc1-c1cccc(N2COc3ccc(-c4ccc(Cn5cccn5)cc4)cc3C2=O)n1` [Example 13, 6-(4-((1H-pyrazol-1-yl)methyl)phenyl)-3-(6-(4-isopropyl-4H-1,2,4-triazol-3-yl)pyridin-2-yl)-2,3-dihydro-4H-benzo[e][1,3]oxazin-4-one], the figure is 7.33; as for `Cc1cc2c(cc1-c1cnn(CC3CC3)c1)C(=O)N(c1cccc(-c3nncn3C(C)C)n1)CO2` [Example 14, 6-(1-(cyclopropylmethyl)-1H-pyrazol-4-yl)-3-(6-(4-isopropyl-4H-1,2,4-triazol-3-yl)pyridin-2-yl)-7-methyl-2,3-dihydro-4H-benzo[e][1,3]oxazin-4-one], 8.36; as for `Cc1cc2c(cc1-c1cnn(C(C)C)c1)C(=O)N(c1cccc(-c3nncn3C(C)C)n1)CO2` [Example 15, 6-(1-isopropyl-1H-pyrazol-4-yl)-3-(6-(4-isopropyl-4H-1,2,4-triazol-3-yl)pyridin-2-yl)-7-methyl-2,3-dihydro-4H-benzo[e][1,3]oxazin-4-one], 8.35.
To `Cc1cc2c(cc1-c1cncnc1)C(=O)N(c1cccc(-c3nncn3C(C)C)n1)CO2` [Example 16, 3-(6-(4-isopropyl-4H-1,2,4-triazol-3-yl)pyridin-2-yl)-7-methyl-6-(pyrimidin-5-yl)-2,3-dihydro-4H-benzo[e][1,3]oxazin-4-one] belongs 7.70; to `CSc1ncc(-c2cc3c(cc2C)OCN(c2cccc(-c4nncn4C(C)C)n2)C3=O)cn1` [Example 17, 3-(6-(4-isopropyl-4H-1,2,4-triazol-3-yl)pyridin-2-yl)-7-methyl-6-(2-(methylthio)pyrimidin-5-yl)-2,3-dihydro-4H-benzo[e][1,3]oxazin-4-one], 8.11; to `Cc1cc2c(cc1-c1cnn(C3CCOC3)c1)C(=O)N(c1cccc(-c3nncn3C(C)C)n1)CO2` (stereo not shown) [Example 18, 3-(6-(4-isopropyl-4H-1,2,4-triazol-3-yl)pyridin-2-yl)-7-methyl-6-(1-(tetrahydrofuran-3-yl)-1H-pyrazol-4-yl)-2,3-dihydro-4H-benzo[e][1,3]oxazin-4-one], 7.97.
Consider `CC(C)n1cnnc1-c1cccc(N2COc3ccc(-n4cnc(C5CC5)c4)cc3C2=O)n1` [Example 19, 6-(4-cyclopropyl-1H-imidazol-1-yl)-3-(6-(4-isopropyl-4H-1,2,4-triazol-3-yl)pyridin-2-yl)-2,3-dihydro-4H-benzo[e][1,3]oxazin-4-one], for which the pIC50 is 8.40.
As for `CCOC(C)n1cc(-c2cc3c(cc2C)OCN(c2cccc(-c4nncn4C(C)C)n2)C3=O)cn1` (stereo not shown) [Example 20, 6-(1-(1-ethoxyethyl)-1H-pyrazol-4-yl)-3-(6-(4-isopropyl-4H-1,2,4-triazol-3-yl)pyridin-2-yl)-7-methyl-2,3-dihydro-4H-benzo[e][1,3]oxazin-4-one], the figure is 8.44; as for `CC(C)n1cnnc1-c1cccc(N2CSc3ccc(-c4cnn(CC5CC5)c4)cc3C2=O)n1` [Example 21, 6-(1-(cyclopropylmethyl)-1H-pyrazol-4-yl)-3-(6-(4-isopropyl-4H-1,2,4-triazol-3-yl)pyridin-2-yl)-2,3-dihydro-4H-benzo[e][1,3]thiazin-4-one], 8.14; as for `CC(C)n1cc(-c2ccc3c(c2)C(=O)N(c2cccc(-c4nncn4C(C)C)n2)CS3)cn1` [Example 22, 6-(1-isopropyl-1H-pyrazol-4-yl)-3-(6-(4-isopropyl-4H-1,2,4-triazol-3-yl)pyridin-2-yl)-2,3-dihydro-4H-benzo[e][1,3]thiazin-4-one], 8.21.
For `CC(C)n1cnnc1-c1cccc(N2CSc3ccc(-c4cnc(C5CC5)nc4)cc3C2=O)n1` [Example 23, 6-(2-cyclopropylpyrimidin-5-yl)-3-(6-(4-isopropyl-4H-1,2,4-triazol-3-yl)pyridin-2-yl)-2,3-dihydro-4H-benzo[e][1,3]thiazin-4-one], the pIC50 is 7.64.
As for `CC(C)n1cnnc1-c1cccc(N2CSc3ccc(-c4cnn(C5CC5)c4)cc3C2=O)n1` [Example 24, 6-(1-cyclopropyl-1H-pyrazol-4-yl)-3-(6-(4-isopropyl-4H-1,2,4-triazol-3-yl)pyridin-2-yl)-2,3-dihydro-4H-benzo[e][1,3]thiazin-4-one], the figure is 7.58; as for `Cc1ncc(-c2ccc3c(c2)C(=O)N(c2cccc(-c4nncn4C(C)C)n2)CS3)cn1` [Example 25, 3-(6-(4-isopropyl-4H-1,2,4-triazol-3-yl)pyridin-2-yl)-6-(2-methylpyrimidin-5-yl)-2,3-dihydro-4H-benzo[e][1,3]thiazin-4-one], 7.11.

These data come from patent publication US12565491B2, “(Isopropyl-triazolyl)pyridinyl-substituted benzooxazinone or benzothiazinone derivatives and use thereof” (HK INNO.N CORPORATION, priority 2018, dated 2026).
